# Columns and labels:
# [1] = tested on: OSBP1 localization in A549 cells; assay: OSBP1 localization by immunofluorescence microscopy, A549; format: cell-based, human
# Experimental: (§1) Immunofluorescence microscopy. HCT-116 or A549 (adenocarcinomic human alveolar basal epithelial) cells were plated on coverslips in 6-well plates. After 72 h, the culture media was removed and replaced with media containing either compound or vehicle control. At the indicated time-points, the cells were fixed for 10 min using 3.7% formaldehyde in PBS. The coverslips were washed with PBS and permeabilized for 5 min with 0.5% Triton X-100 in PBS. Following PBS washing, the coverslips were blocked for 30 min using Image-iT™ FX (Invitrogen), washed with PBS, and then blocked for 30 min at room temperature (RT) with 1% BSA in PBS (BSA/PBS). The coverslips were then incubated overnight at 4° C. with a primary antibody solution in BSA/PBS. The coverslips were washed with BSA/PBS and incubated for 60 min at RT with Alexa Fluor®-conjugated secondary antibodies (Invitrogen) in BSA/PBS, with the final 30 min including incubation with Hoescht 33258. The coverslips were then washed sequentially with BSA/PBS, PBS, and water and finally mounted on microscope slides using Aqua Poly/Mount (Polysciences Inc.). Imaging data was acquired using Zeiss LSM 510 META scanning confocal microscope.
# Perturbations of OSBP1 localization by 1, 2, and 4b in A549 cells were also observed.
# [2] = tested on: HeLa cells overexpressing OSBP1-myc-his or ORP4L-myc-his; assay: Overexpression-viability assay, OSBP1-myc-his or ORP4L-myc-his; format: cell-based; details: 48 h, vs lacZ
# Experimental: (§2) Overexpression-viability assays with wild-type and mutant OSBP/ORP4L constructs were carried out by transfecting HeLa cells with the appropriate plasmids using Lipofectamine™ LTX with PLUS™ reagent (Invitrogen) as instructed, and after 8 h of transfection, the cells were re-plated for the cell viability assay, performed as described above. Expression levels were evaluated by immunoblotting at the time of dosing.
# CHO-K1 cells = assay: Sphingomyelin biosynthesis, [3H]-serine pulse-labeling, CHO-K1; format: cell-based
# Experimental: Sphingomyelin is biosynthesized from ceramide at the Golgi apparatus. Ceramide is primarily transported from the ER to the Golgi by ceramide transport protein (CERT), and the transport activity of CERT is both OSBP1- and VAP-A dependent. […] To determine whether the ORPphilins affect sphingomyelin synthesis, pulse-labeling with [^3H]-serine was performed in CHO-K1 and HCT-116 cells and the amount of tritium incorporated into sphingomyelin and other lipids then measured. Cells were treated with vehicle or compound for 6 h, and in the last 2 h the cells were pulsed with 10 μCi [^3H]-serine. Lipids were extracted and isolated by TLC, and label incorporation into sphingomyelin was measured by scintillation counting.
# [3] = tested on: HCT-116 p21^−/− cells with OSBP1-targeting shRNA; assay: OSBP1 shRNA knockdown/dose-shift experiment; format: cell-based, human; details: shOSBP1 vs shNT, 72 h
# Text: FIG. 3A is a series of four bar graphs depicting knockdown/dose-shift experiment in HCT-116 p21^−/− cells stably transfected with either OSBP1-targeting shRNA (shOSBP1) or non-targeting shRNA (shNT). Bars represent s.d. of three or four individual experiments. * P=0.0002 (n=3); ** P=0.0006 (n=4); *** P=0.0003 (n=3) compared to shNT cells (two-tailed students t-test).
# To ascertain if the antiproliferative activity of the ORPphilins depended on the levels of OSBP1 and ORP4L in cells, short hairpin RNA (shRNA) knockdown of OSBP1 expression was performed and then its effect on the growth inhibitory activity of 1, 2, and 4a measured. […] Similar results were obtained in HeLa cells. Overexpression of OSBP1-myc-his or ORP4L-myc-his (FIG. 3C) for 48 h desensitized HeLa cells to the antiproliferative activity of 1, 2, or 4a by ˜2-5-fold (FIG. 3D). However, taxol-induced growth inhibition was not affected by overexpression of OSBP1-myc-his or ORP4L-myc-his (FIG. 3D).
# HCT-116 cells = assay: Growth inhibition with 25-OHC co-administration; format: cell-based, human; details: 10 μM 25-OHC for 1 and 2
# Experimental: 25-OHC (11) is a high-affinity ligand of OSBP1 and ORP4L that is not cytotoxic at concentrations up to 10 μM. Example 1 established that the ORPphilins compete with 25-OHC for binding to OSBP1 and ORP4L (FIG. 2D,E). Therefore, if OSBP1 and ORP4L mediate the biological activities of these compounds, co-administration of sub-lethal doses of 25-OHC with the ORPphilins should inhibit binding of the ORPphilins to OSBP1 and ORP4L, thereby desensitizing cells to the cytotoxic effects of the ORPphilins.
# [4] = tested on: HeLa cells overexpressing OSBP1(V582M); assay: Overexpression-viability assay, OSBP1(V582M)-myc-his; format: cell-based; details: 48 h
# Experimental: as §2
# (§3) For additional support that OSBP1 and ORP4L are targets of the ORPphilins, dominant drug-resistant alleles of these proteins were sought. 15 OSBP1 residues inside and outside the region of the protein previously reported to mediate sterol binding were mutated (FIG. 4C). The growth inhibition induced by the ORPphilins was determined in HeLa cells overexpressing either wild-type or mutant OSBP1-myc-his proteins. Expression of wt OSBP1-myc-his and mutant OSBP1-myc-his were nearly equivalent as measured by western blot.
# (§4) The same mutant caused a 3.9-fold reduction in the antiproliferative activity of OSW-1 (2) (FIG. 4E2) and a 2.7-fold reduction in the activity of schweinfurthin A (4a) (FIG. 4E3). […] The antiproliferative activity of taxol was unaffected by expression of these two OSBP1 mutant proteins (FIGS. 4E4, 4E8).
# [5] = tested on: HeLa cells overexpressing OSBP1(M446W)-myc-his; assay: Overexpression-viability assay, OSBP1(M446W)-myc-his; format: cell-based; details: 48 h
# Experimental: as §2, §3, §4
# HCT-116 p21^+/+ = details: cited from earlier work
# HCT-116 p21^−/− = details: cited from earlier work
# ORP4L-myc-his = molecular target: T1, ORP4L-myc-his (Homo sapiens, UniProt Q969R2); assay: [3H]-25-hydroxycholesterol charcoal-dextran binding assay with ORP4L-myc-his; details: read-out: [^3H]-25-OHC K1 (nM) ORP4L-myc-his; competition with 20 nM [3H]-25-OHC, HEK-293T S100 lysate, 4° C., 16 h
# T1 sequence (Q969R2 1-916): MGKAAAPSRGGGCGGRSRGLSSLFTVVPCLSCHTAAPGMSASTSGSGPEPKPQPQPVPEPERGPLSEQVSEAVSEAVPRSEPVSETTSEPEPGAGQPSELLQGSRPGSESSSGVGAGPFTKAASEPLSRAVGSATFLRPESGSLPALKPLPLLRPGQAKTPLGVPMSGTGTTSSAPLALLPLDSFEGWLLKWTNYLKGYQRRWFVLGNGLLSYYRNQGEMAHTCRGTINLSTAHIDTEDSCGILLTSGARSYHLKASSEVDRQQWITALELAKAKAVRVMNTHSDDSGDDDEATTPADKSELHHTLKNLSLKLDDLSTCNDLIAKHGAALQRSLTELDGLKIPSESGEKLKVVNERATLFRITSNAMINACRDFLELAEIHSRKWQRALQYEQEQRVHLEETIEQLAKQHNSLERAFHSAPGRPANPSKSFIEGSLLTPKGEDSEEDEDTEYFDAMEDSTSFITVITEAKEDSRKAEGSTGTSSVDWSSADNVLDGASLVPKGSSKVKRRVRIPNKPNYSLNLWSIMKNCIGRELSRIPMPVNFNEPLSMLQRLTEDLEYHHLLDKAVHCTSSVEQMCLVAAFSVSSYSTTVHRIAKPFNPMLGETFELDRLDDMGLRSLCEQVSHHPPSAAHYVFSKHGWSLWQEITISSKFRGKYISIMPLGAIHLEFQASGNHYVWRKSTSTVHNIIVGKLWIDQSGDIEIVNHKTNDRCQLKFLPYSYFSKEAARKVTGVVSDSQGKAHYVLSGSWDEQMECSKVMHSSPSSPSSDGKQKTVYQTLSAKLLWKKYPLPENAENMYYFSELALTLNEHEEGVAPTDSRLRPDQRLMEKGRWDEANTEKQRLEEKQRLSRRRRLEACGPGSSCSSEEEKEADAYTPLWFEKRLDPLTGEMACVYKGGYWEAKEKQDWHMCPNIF
# Experimental: [^3H]-25-Hydroxycholesterol charcoal-dextran binding assay. […] These vectors were transfected into HEK-293T cells using Lipofectamine™2000 (Invitrogen), and 48 h after transfection, on-plate lysis of the transfected cells with the M-Per®/HALT™ with EDTA (ThermoScientific) reagent was performed, followed by ultracentrifugation at 100,000 g. The S100 lysate was diluted to 0.2 mg/mL, aliquoted and stored at −80° C. until use. The HEK-293T OSBP1-, ORP4L- or lacZ-myc-his lysate was incubated with [^3H]-25-hydroxycholesterol at 4° C. for 16 h in 96-well plates. After incubation, charcoal/dextran (C/D) was added to the wells for 30 min of shaking at RT, followed by centrifugation for 15 min at 1900 g to pellet the C/D. The C/D-cleared lysate was added to MicroScint™-20 (PerkinElmer) scintillation fluid, and the remaining protein-bound radiolabel was quantified using a TopCount™ scintillation counter. [^3H]-25-hydroxycholesterol binding curves and competition curves were repeated at least three times.
# Lysates were thawed on ice, with brief periods of hand warming. Both the ^3H-25-OHC direct binding assays and the ^3H-25-OHC competition binding assays were set up similarly, with a large stock of binding assay lysate being prepared, then 73.5 μL of the binding assay mixture dispensed using a multi-channel pipettor into “V”-shaped 96-well plates. For the ^3H-25-OHC direct binding assay, 1.5 μL of ^3H-25-OHC and ^3H-25-OHC/40×25-OHC added to the wells in dilutions in 100% ethanol. For the ^3H-25-OHC competition binding assays, ^3H-25-OHC was added to the large stock of binding assay lysate to a final concentration of 20 nM. This ^3H-25-OHC-containing binding lysate was then dispensed using a multi-channel pipettor into the 96-well plates. Then, 1.5 μL of a serial dilution of the inhibitors in either 100% ethanol (25-OHC) or DMSO (the ORPphilins) was added to each well.
# The binding lysate used in each well of the 96-well plate consisted of 60 μL of 0.2 mg/mL S100 lysate, 7.5 μL 20% PVA, and 5.6 μL 2M KCl. For ^3H-25-OHC binding curve experiments, 0.4 μL of buffer was then added (total volume per well: 73.5 μL). For the ^3H-25-OHC inhibition competition assays, 0.11 μL of 13.2 μM ^3H-25-OHC and 0.29 μL binding buffer was added for each well (total volume per well: 73.5 μL).
# Binding assays were incubated, standing, for 16 h at 4° C. Then 30 μL of the rt C/D solution was multichannel pipetted into new “V’ shaped 96-well plates, and 60 μL of the binding lysate mixture was then added. The plates were briefly, lightly vortexed (˜10 sec), 10 and then rocked at 250 rpm for 30 min at rt. The plates were then centrifuged at 1900 g for 15 min at 4° C. in Microplate Carriers (Sorvall cat. #75006449S) in a Sorvall Legend RT centrifuge. Carefully so as to not disturb the C/D pellet, 30 μL of the supernatant was transferred to 170 μL of Microscint-20 in the OptiPlates. The plates were sealed with the TopSealA-Films, and vigorously vortexed (max speed, >1 min). ^3H-25-OHC detection in the wells was then performed using a TopCount Scintillation detector, counting each well for 2 min. Data was graphed and analyzed using GraphPad PrismS, using non-linear regression to determine KD and K1 values.
# Binding experiments were performed at 4° C. for 16 h. Unbound sterol was removed using dextran-coated charcoal, and protein-bound sterol left in the supernatant was quantified by scintillation counting. Ki-values were determined as mean±s.d. from at least three independent experiments.
# [6] = tested on: OSBP1 localization in HCT-116 cells; assay: OSBP1 localization by immunofluorescence microscopy, HCT-116; format: cell-based, human; details: 4 h treatment
# Experimental: as §1
# Although the function of OSBP1 is not yet fully elucidated, several cellular activities have been observed. For instance, OSBP1 translocates from cytoplasmic sites to the trans-Golgi network (TGN) upon addition of 25-OHC to cells. HCT-116 cells were treated with ORPphilins for short time periods (4 h) and the effects on OSBP1 localization monitored using immunofluorescence microscopy.
# OSBP1 (green) and trans-Golgi protein P230 (red) were visualized in HCT-116 cells using indirect immunofluorescence microscopy. Cells were treated with compound for 4 h, fixed with 3.7% formaldehyde/PBS, washed, and permeabilized using 0.5% Triton X-100 in PBS. Proteins were labelled using specific primary antibodies against OSBP1 and P230 overnight at 4° C. After washing, cells were treated with Alexa Fluor 488 and Alexa Fluor 546 secondary antibodies for 1 h at RT.
# OSBP1-myc-his = molecular target: T2, OSBP1-myc-his (Homo sapiens, UniProt P22059); assay: [3H]-25-hydroxycholesterol charcoal-dextran binding assay with OSBP1-myc-his; details: competition with 20 nM [3H]-25-OHC, HEK-293T S100 lysate, 4° C., 16 h; read-out: [^3H]-25-OHC K1 (nM) OSBP1-myc-his
# T2 construct: made in house; host or cells: HEK-293T (transient transfection; S100 lysate, not purified)
# T2 sequence (P22059 1-807): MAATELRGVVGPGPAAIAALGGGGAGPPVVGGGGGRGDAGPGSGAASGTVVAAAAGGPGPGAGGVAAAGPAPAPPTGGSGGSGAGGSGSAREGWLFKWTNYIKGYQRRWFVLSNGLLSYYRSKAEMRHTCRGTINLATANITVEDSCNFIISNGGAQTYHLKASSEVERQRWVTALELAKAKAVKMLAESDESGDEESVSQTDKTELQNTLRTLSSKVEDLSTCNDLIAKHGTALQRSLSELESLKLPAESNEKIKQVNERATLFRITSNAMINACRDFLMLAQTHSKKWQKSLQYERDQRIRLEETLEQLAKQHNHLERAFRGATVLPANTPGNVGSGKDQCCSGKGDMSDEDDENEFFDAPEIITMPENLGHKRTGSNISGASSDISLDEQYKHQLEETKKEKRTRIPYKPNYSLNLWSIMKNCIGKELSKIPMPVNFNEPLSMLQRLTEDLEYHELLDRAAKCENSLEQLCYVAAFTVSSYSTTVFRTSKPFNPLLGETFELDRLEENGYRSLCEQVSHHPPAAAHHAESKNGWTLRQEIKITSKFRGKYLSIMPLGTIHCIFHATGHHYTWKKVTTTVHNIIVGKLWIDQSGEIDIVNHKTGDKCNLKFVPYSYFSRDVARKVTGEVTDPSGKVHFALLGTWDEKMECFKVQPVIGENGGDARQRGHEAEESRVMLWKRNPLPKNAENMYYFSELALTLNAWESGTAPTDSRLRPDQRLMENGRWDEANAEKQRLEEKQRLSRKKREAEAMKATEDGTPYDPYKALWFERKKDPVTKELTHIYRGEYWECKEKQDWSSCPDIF
# Text: [^3H]-25-Hydroxycholesterol charcoal-dextran binding assay.
# Methods are described above in the General Methods section.
compound,measurement,setting,value
"COc1cc(/C=C/c2cc(O)c(C/C=C(\C)CCC=C(C)C)c(O)c2)cc2c1O[C@]1(C)C[C@@H](O)[C@@H](O)C(C)(C)[C@H]1C2 [Schweinfurthin B, schweinfurthin B]",OSBP1 localization,[1],perinuclear OSBP1-staining similar to 25-OHC
CC(=O)O[C@H]1C(=O)[C@@]2(C)[C@H]([C@H](OC(=O)c3ccccc3)[C@]3(O)C[C@H](OC(=O)[C@H](O)[C@@H](NC(=O)c4ccccc4)c4ccccc4)C(C)=C1C3(C)C)[C@]1(OC(C)=O)CO[C@@H]1C[C@@H]2O [taxol],desensitization by overexpression of OSBP1-myc-his or ORP4L-myc-his,[2],not affected
same,inhibition of SM biosynthesis (negative controls),CHO-K1 cells,did not occur
same,sensitization by OSBP1 knockdown (GI50 shift),[3],did not sensitize
same,effect of 25-OHC co-administration on the antiproliferative activity,HCT-116 cells,did not affect
same,"reduction in antiproliferative activity, OSBP1(V582M) vs wt OSBP1",[4],unaffected
same,"reduction in antiproliferative activity at the GI50 level, OSBP1(M446W) vs wt OSBP1",[5],unaffected
"CC(/C=C/C=C(C)/C=C/C=C(\C)C(=O)O)=C1/C(=O)C[C@H]2[C@@]3(C)CCC(=O)C(C)(C)[C@@H]3CC[C@]12C [(−)-stellettin E, (−)-Stellettin E]",GI50,HCT-116 p21^+/+,4570 nM
same,GI50,HCT-116 p21^−/−,39 nM
same,times more cytotoxic to HCT-116 p21−/− than to parental HCT-116,HCT-116 p21^−/−,117 times
C/C=C(/C)C(=O)O[C@H]1C(C)=C2[C@H]([C@@H]1OC(=O)CCCCCCC)[C@@](C)(OC(C)=O)C[C@H](OC(=O)CCC)[C@@]1(O)[C@H]2OC(=O)[C@@]1(C)O [thapsigargin],inhibition of SM biosynthesis (negative controls),CHO-K1 cells,did not occur
ritterazine B,Ki,ORP4L-myc-his,> 360 nM
same,OSBP1 localization,[6],effect was also observed
same,Ki,OSBP1-myc-his,28 ± 4 nM

# Reference: US9790253B2, “OSW-1 analogs and conjugates, and uses thereof” (priority 2011, dated 2017)
